Assay results: ChEMBL document CHEMBL5465560, “Selectivity Literature for EUbOPEN Chemogenomic Library” (2024)

What was measured:
[1] = target: Casein kinase I isoform alpha (Homo sapiens, UniProt P48729); experiment: Selectivity interaction (KinomeScan (DiscoverX)) EUB0000666a CSNK1A1; conditions: at 10 µM
[2] = target: T1, High affinity nerve growth factor receptor (Homo sapiens, UniProt P04629); experiment: Selectivity interaction (KinomeScan (DiscoverX)) EUB0000229b NTRK1; conditions: at 10 µM
T1 sequence (P04629 33-796 limits assumed): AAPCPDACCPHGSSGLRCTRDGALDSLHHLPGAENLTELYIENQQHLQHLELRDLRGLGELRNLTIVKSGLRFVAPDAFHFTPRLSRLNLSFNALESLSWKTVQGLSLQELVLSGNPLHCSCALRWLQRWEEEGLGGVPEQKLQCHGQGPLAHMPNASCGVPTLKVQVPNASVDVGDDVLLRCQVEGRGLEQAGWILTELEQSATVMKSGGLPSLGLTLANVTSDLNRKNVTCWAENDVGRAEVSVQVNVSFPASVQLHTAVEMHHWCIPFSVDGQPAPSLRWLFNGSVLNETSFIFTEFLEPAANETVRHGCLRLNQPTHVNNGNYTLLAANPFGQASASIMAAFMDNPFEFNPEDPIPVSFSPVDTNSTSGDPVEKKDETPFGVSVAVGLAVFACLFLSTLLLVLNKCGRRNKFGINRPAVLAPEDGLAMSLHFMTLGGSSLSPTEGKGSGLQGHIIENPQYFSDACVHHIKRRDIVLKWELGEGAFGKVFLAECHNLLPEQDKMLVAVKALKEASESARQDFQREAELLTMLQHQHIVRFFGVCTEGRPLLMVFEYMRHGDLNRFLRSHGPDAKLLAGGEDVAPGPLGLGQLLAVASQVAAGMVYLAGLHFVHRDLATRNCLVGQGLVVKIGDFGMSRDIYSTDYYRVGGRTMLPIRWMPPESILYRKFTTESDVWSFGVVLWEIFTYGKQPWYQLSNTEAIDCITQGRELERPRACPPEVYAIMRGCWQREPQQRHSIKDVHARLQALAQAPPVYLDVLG

[3] = target: Dual specificity protein kinase CLK1 (Homo sapiens, UniProt P49759); experiment: Selectivity interaction (KinomeScan (DiscoverX)) EUB0000229b CLK1; conditions: at 10 µM
Sequence of Dual specificity protein kinase CLK1 (P49759 whole entry, looked up): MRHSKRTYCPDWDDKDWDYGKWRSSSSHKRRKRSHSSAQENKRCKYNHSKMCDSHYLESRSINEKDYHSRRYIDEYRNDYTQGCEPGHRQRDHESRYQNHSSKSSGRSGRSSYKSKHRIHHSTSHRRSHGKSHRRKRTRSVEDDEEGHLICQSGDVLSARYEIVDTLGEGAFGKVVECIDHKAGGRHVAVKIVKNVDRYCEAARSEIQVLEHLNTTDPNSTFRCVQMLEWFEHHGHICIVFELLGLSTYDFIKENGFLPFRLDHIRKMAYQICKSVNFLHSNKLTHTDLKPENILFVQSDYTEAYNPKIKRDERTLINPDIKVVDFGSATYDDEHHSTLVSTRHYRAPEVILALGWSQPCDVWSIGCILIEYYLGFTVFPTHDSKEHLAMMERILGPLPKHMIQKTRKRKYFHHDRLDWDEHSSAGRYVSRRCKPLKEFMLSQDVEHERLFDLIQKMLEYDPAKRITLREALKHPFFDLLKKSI

[4] = target: Mitogen-activated protein kinase 1 (Homo sapiens, UniProt P28482); experiment: Selectivity interaction (ActivX KiNativ screen (kinase selectivity in THP-1 cell lysates)) EUB0000639a MAPK1; format: subcellular; conditions: lysate
Sequence of Mitogen-activated protein kinase 1 (P28482 whole entry): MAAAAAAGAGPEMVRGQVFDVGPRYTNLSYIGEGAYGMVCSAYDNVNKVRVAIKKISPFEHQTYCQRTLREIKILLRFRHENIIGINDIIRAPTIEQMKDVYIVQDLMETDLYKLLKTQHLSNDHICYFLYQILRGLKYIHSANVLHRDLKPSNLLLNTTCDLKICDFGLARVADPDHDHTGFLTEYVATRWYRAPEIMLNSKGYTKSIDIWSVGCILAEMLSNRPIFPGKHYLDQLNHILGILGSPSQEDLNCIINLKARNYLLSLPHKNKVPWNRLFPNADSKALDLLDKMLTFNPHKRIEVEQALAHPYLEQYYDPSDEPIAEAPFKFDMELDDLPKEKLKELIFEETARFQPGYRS

[5] = target: Receptor tyrosine-protein kinase erbB-3 (Homo sapiens) (UniProt P21860); experiment: Selectivity interaction (KinomeScan (DiscoverX)) EUB0000092b ERBB3; conditions: at 10 µM
[6] = target: T2, Dual specificity mitogen-activated protein kinase kinase 6 (Homo sapiens) (UniProt P52564); experiment: Selectivity interaction (KinomeScan (DiscoverX)) EUB0000092b MAP2K6; conditions: at 10 µM
T2 sequence (whole entry): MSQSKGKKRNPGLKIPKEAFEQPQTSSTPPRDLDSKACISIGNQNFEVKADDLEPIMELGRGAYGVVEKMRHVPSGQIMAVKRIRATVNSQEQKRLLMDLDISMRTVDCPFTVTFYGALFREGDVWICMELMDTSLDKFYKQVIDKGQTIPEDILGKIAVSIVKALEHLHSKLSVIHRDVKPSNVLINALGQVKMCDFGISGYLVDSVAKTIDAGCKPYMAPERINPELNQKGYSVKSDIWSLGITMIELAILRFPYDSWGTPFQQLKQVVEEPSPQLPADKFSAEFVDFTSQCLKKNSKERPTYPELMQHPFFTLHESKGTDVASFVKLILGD

[7] = target: Serine/threonine-protein kinase 38-like (Homo sapiens) (UniProt Q9Y2H1); experiment: Selectivity interaction (KinomeScan (DiscoverX)) EUB0000618a STK38L; conditions: at 10 µM
Sequence of Serine/threonine-protein kinase 38-like (Homo sapiens) (Q9Y2H1 2-464 limits assumed): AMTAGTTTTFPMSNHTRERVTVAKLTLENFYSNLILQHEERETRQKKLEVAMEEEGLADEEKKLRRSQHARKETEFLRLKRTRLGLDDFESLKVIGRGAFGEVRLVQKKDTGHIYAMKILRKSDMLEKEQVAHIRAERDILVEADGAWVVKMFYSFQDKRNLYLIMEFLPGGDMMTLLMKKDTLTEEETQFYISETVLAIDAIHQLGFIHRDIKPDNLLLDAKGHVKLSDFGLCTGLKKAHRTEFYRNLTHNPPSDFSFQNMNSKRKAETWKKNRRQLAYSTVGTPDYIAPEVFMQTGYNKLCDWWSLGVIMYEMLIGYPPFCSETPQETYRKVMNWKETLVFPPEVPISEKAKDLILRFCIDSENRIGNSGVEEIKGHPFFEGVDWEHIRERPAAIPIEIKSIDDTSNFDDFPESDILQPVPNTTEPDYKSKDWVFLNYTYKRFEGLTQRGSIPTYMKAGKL

[8] = target: T1, High affinity nerve growth factor receptor; conditions: at 10 µM
[9] = target: Homeodomain-interacting protein kinase 1 (Homo sapiens, UniProt Q86Z02); experiment: Selectivity interaction (KinomeScan (DiscoverX)) EUB0001619a HIPK1; conditions: at 1 µM
Sequence of Homeodomain-interacting protein kinase 1 (Q86Z02 whole entry, looked up): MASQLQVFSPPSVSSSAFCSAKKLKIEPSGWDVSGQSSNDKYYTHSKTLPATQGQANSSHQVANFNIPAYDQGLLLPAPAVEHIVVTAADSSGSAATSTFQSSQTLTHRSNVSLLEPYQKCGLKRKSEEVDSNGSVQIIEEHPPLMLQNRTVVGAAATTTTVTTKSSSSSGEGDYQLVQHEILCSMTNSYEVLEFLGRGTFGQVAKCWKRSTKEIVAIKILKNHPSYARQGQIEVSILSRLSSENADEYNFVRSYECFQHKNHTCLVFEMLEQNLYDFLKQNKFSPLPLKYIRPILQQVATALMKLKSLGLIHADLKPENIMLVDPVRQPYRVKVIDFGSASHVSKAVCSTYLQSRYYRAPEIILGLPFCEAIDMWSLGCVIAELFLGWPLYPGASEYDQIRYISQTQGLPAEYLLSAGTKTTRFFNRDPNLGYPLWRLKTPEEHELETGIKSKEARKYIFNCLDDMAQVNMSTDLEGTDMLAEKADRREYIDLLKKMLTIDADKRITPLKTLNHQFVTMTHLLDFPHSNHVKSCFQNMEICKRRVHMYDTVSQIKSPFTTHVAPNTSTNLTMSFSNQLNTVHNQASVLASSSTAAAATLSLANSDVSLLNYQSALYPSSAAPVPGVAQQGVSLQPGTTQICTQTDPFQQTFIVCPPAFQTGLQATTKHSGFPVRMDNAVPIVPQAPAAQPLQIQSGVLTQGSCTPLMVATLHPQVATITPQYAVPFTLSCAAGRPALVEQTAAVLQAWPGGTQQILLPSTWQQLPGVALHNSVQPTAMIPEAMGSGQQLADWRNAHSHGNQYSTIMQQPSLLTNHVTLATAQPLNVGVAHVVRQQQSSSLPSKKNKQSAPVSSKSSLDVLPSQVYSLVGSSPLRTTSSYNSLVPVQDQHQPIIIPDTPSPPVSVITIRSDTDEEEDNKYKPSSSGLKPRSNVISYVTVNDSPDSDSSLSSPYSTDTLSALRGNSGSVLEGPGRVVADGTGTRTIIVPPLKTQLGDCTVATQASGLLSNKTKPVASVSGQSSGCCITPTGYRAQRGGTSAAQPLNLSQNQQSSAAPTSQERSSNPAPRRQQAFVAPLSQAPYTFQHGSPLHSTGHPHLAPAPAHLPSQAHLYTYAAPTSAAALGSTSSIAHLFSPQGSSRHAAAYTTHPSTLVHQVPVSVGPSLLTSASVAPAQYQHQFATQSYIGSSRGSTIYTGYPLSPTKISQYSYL

[10] = target: Tyrosine-protein kinase Yes (Homo sapiens) (UniProt P07947); experiment: Selectivity interaction (KinomeScan (DiscoverX)) EUB0001619a YES1; conditions: at 1 µM
[11] = target: T3, Phosphorylase b kinase gamma catalytic chain, liver/testis isoform (Homo sapiens) (UniProt P15735); experiment: Selectivity interaction (KinomeScan (DiscoverX)) EUB0001619a PHKG2; conditions: at 1 µM
T3 sequence (whole entry): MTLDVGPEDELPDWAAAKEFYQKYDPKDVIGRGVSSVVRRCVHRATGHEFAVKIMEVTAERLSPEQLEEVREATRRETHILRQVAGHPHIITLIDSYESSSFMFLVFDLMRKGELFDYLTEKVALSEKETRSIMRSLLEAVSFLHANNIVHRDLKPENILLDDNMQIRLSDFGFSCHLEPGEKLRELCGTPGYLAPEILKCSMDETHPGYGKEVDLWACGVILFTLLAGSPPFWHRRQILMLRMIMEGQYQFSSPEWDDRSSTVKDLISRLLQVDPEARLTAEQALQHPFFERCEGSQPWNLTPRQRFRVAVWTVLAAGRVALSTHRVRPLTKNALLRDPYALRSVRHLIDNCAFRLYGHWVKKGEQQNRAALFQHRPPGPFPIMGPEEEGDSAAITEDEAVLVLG

[12] = target: Dual specificity protein kinase CLK2 (Homo sapiens, UniProt P49760); experiment: Selectivity interaction (KinomeScan (DiscoverX)) EUB0000607a CLK2; conditions: at 10 µM
Sequence of Dual specificity protein kinase CLK2 (P49760 whole entry, looked up): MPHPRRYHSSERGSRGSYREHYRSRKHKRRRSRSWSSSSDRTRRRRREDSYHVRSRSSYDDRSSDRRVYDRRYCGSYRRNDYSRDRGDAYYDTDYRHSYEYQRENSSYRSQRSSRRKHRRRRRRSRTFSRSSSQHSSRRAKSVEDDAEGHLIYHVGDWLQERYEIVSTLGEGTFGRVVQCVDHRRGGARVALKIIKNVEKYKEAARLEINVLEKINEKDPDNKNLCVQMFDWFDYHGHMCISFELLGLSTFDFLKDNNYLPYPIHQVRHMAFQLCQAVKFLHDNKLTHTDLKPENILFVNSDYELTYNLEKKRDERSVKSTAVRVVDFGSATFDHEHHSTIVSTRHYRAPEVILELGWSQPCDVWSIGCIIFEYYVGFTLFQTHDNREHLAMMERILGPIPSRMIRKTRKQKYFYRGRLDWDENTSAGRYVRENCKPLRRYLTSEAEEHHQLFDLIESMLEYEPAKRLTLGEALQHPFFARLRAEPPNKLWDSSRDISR

[13] = target: MAP kinase-interacting serine/threonine-protein kinase 2 (Homo sapiens, UniProt Q9HBH9); experiment: Selectivity interaction (LanthaScreen Eu Kinase Binding Assay) EUB0001632a MKNK2; conditions: at 10 µM
Sequence of MAP kinase-interacting serine/threonine-protein kinase 2 (Q9HBH9 whole entry, looked up): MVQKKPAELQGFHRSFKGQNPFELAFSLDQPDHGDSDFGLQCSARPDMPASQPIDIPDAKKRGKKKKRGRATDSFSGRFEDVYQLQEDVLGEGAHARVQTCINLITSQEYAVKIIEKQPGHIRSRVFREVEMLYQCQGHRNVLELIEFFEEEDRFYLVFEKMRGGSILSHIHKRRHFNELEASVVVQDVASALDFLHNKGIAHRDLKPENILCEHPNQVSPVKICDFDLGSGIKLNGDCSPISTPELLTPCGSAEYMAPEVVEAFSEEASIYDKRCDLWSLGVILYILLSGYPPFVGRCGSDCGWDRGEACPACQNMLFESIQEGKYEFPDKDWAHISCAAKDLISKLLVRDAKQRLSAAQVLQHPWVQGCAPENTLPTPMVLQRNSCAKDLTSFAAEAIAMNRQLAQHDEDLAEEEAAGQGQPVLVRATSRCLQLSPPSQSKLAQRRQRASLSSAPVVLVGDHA

[14] = target: T4, Serine/threonine-protein kinase D3 (Homo sapiens) (UniProt O94806); experiment: Selectivity interaction (ProQinase) EUB0000171b PRKD3
T4 sequence (whole entry): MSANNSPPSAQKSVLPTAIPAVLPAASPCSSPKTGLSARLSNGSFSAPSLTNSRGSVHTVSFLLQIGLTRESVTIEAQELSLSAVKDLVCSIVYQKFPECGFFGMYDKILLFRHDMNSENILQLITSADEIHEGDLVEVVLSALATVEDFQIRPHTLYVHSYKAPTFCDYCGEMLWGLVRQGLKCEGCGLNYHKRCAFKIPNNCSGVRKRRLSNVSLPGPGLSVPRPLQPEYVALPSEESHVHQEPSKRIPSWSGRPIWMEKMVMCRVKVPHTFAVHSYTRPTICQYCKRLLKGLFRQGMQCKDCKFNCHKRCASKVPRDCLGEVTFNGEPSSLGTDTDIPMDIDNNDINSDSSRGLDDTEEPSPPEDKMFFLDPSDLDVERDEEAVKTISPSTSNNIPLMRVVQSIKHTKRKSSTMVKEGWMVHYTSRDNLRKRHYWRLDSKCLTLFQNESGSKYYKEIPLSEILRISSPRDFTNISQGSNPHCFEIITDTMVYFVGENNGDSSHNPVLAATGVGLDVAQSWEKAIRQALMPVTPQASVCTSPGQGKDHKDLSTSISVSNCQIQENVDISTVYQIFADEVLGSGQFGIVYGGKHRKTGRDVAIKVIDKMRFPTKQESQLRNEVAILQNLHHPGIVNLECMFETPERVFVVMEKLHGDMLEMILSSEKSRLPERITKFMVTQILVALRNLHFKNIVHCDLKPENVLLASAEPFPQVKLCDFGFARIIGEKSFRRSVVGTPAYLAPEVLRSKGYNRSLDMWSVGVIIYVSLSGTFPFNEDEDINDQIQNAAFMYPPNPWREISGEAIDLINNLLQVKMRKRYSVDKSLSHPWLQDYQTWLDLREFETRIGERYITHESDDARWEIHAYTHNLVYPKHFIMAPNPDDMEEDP

Sequence of Casein kinase I isoform alpha (P48729 2-337 limits assumed): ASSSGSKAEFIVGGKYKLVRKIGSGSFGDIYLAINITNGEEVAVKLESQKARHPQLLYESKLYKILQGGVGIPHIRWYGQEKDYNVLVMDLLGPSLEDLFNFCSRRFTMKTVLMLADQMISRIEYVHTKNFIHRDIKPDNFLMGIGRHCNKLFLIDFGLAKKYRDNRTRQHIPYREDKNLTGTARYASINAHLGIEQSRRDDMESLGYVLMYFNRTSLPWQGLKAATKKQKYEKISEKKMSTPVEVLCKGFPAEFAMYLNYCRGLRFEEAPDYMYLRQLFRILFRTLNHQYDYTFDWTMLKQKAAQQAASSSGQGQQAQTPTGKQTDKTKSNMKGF

O=C(NOC[C@H](O)CO)c1ccc(F)c(F)c1Nc1ccc(I)cc1F
% of control [1]: 100%

COc1cc(N(C)c2ccnc3ccc(C(F)(F)F)cc23)cc(OC)c1OC
% binding [2]: 96% | % binding [3]: 84%

CC[C@@H]1[C@H](F)C(=O)N[C@@H]1COc1nccc2cc(C(N)=O)c(OC)cc12 [ZIMLOVISERTIB]
% of inhibition ([4]; at 0.01 µM): -8.4% | % of inhibition ([4]; at 0.04 µM): -6% | % of inhibition ([4]; at 0.2 µM): 0.3% | % of inhibition ([4]; at 1 µM): -16.3% | % of inhibition ([4]; at 5 µM): -11.6%

CCC(=O)N1CCN(c2ccc(-n3c(=O)ccc4cnc5ccc(-c6cnc7ccccc7c6)cc5c43)cc2C(F)(F)F)CC1
% of control [5]: 44% | % of control [6]: 100%

O[C@H]1CC[C@H](Nc2ncc3nc(Nc4c(F)cc(F)cc4F)n([C@H]4CCOC4)c3n2)CC1
% of control [7]: 100%

Cc1cc([C@@H](C)Nc2ccccc2C(=O)O)c2nc(N3CCOCC3)cc(=O)n2c1 [AZD-6482]
% of control [8]: 88%

N#Cc1cccc(-c2c[nH]c3ncnc(N4CCOCC4)c23)c1
% of control [9]: 77% | % of control [10]: 95% | % of control [11]: 40%

CNC(=O)Nc1ccc(-c2nc(N3CC4CCC(C3)O4)c3cnn(C4CCC5(CC4)OCCO5)c3n2)cc1
% of control [12]: 98%

Cn1cc(-n2cnc3c(NCc4nc5cc(Cl)c(Cl)cc5[nH]4)nc(N4CCOCC4)nc32)cn1
% of inhibition [13]: -36%

C=CC(=O)Nc1cccc(C(=O)Nc2ccc(Nc3cc(-c4[nH]c(SC)nc4C)ccn3)cc2)c1
% of control ([14]; at 1 µM): 44% | % of control ([14]; at 5 µM): 15%
